Laboratory results as given in patent US9006439B2, “Camptothecin derivatives having anti-tumor activity” (priority 2011, dated 2015).
Read-outs that look alike come from different tables or passages of the source. Marks after values point to notes of the source that are not given here.

Key:
[1] = system: BX-PC3 (pancreatic cancer) cells; experiment: MTT in vitro cytotoxicity, BX-PC3; type: cell-based, human; conditions: read-out: Concentration to inhibit 50% cell growth (IC50 nM ± SD), BX-PC3
Method: (§1) In vitro cytotoxicity was measured with MTT. Cell suspension was prepared using cells in good condition and seeded at 200 μl/well on a 96 well plate before culturing for 24 hours in a temperature-controlled CO2 incubator. The test drug was added at 20 μl/well and cultured for 48 hours. MTT was added to the 96 well plate at 20 ul/well and allowed to react for 4 hours in the incubator. The supernatant was removed and DMSO was added at 20 μl/well. Cytotoxicity was determined by the absorbance measured by Enzyme-linked immunosorbent assay at a wavelength of 570 nm.

[2] = system: A549 (non-small cell lung cancer) cells; experiment: MTT in vitro cytotoxicity, A549; type: cell-based, human; conditions: read-out: Concentration to inhibit 50% cell growth (IC50 nM ± SD), A549
Method: as §1

[3] = system: U87, BX-PC3, HT-29, OV-3 and A549 cell lines; experiment: MTT in vitro cytotoxicity, five cell lines together (mean / overall); conditions: for in vitro activity / cytotoxicity (in words): MTT, A549, HT-29, OV-3, U87, BX-PC3
Method: as §1

[4] = system: HT-29 (colon cancer) cells; experiment: MTT in vitro cytotoxicity, HT-29; type: cell-based, human; conditions: read-out: Concentration to inhibit 50% cell growth (IC50 nM ± SD), HT-29
Method: as §1

[5] = system: U87 (glioma) cells; experiment: MTT in vitro cytotoxicity, U87; type: cell-based, human; conditions: read-out: Concentration to inhibit 50% cell growth (IC50 nM ± SD), U87
Method: as §1

[6] = system: OV-3 (ovarian cancer) cells; experiment: MTT in vitro cytotoxicity, OV-3; type: cell-based, human; conditions: read-out: Concentration to inhibit 50% cell growth (IC50 nM ± SD), OV-3
Method: as §1

[7] = system: MX-1 human breast cancer xenograft; experiment: Therapeutic effect on nude mouse with MX-1 xenograft; type: in vivo; conditions: for Tumor disappear: animals with tumor not detectable visually, observed for 60 days; for Tumor disappear / Maximum change in weight (%): iv; for T.S. (mm3) D 16: tumor size 16 days after treatment, iv tail vein; for T.S. (mm3) D 16 / T.S. (mm3) D 0: MX-1; for T.S. (mm3) D 0: tumor size at day 0 (baseline)
Method: (§2) Methods: female nude mice were used for the experiments. Transplantation of tumors: Actively growing tumor tissues were cut into small pieces with sterilized scissors and each mouse was inoculated with 50 mg of the tumor tissue. Treatment began on days 6-10 after tumor transplantation when the weight of the tumor was around 300 mg. The nude mice were weighed and the tumor size was measured every other day. Transplanted tumors: human breast cancer (MX-1), human non-small cell lung cancer (A549), human ovarian carcinoma (SK-0V3), human colon carcinoma (HT29), human pancreatic cancer (BX-PC-3).
B: Tumor disappearance: tumor could not be detected visually 60 days after the experiment

[8] = system: SK-OV3 human ovarian carcinoma xenograft; experiment: Therapeutic effect on nude mice with SK-OV3 xenograft; type: in vivo; set-up: Tumor inhibition: unit not given here; conditions: for Tumor inhibition: 16 days after treatment; for Tumor inhibition / Maximum change in weight (%): iv; for Tumor inhibition / T.S. (mm3) D 16 / T.S. (mm3) D 0: SK-OV3; for T.S. (mm3) D 16: tumor size 16 days after treatment, iv tail vein; for T.S. (mm3) D 0: tumor size at day 0 (baseline)
Method: as §2

[9] = system: a variety of transplanted tumors; conditions: at maximum tolerated dose
Method: as §2

[10] = system: intra-cerebrally transplanted U87 human glioma brain tumor; experiment: Therapeutic effect on intra-cerebrally transplanted U87 brain tumor; type: in vivo, mice
Text: Methods: female nude mice were used for the experiments.
Dosing regimen: once every two days, a total of four times; route of administration: intravenous injection at the tail vein. Mice died from brain tumor after inoculation with 2×10^5 cells. #: Comparing CPT1 with irinotecan and gimatecan.

[11] = Solubility and stability comparison; type: physicochemical
Text: (§3) CP1 had better solubility and stability than CPT2-10.

[12] = Determination of equitoxic dose (maximum tolerated dose); type: in vivo, nude mice; conditions: q2dx4, decrease in weight of around 15%; for MTD: nude, mouse, in vivo, intravenous, read-out: Experimentally determined dosage at the same level of toxicity (maximum tolerated dose)
Method: as §3
Dosing regimen: once every two days, a total of four times; route of administration: intravenous injection at the tail vein. # At 16 days after treatment. […] The doses used were those that were determined experimentally to cause the same toxicity of weight decrease by 12-15%. T.S: tumor size

[13] = MTT, drug cultured 48 hours, BX-PC3
[14] = MTT, drug cultured 48 hours, A549
[15] = read-out: Concentration to inhibit 50% cell growth, mean (average concentration), mean over U87, BX-PC3, HT-29, OV-3, A549
[16] = MTT, drug cultured 48 hours, HT-29
[17] = MTT, drug cultured 48 hours, U87
[18] = MTT, drug cultured 48 hours, OV-3
[19] = once every two days, four times
[20] = inoculation with 2×10^5 U87 cells intra-cerebrally, iv, once every two days, four times
[21] = MX-1 nude mouse, once every two days, four times
[22] = SK-OV3 nude mice, once every two days, four times

Compound	IC50 [1, 13] [nM]	IC50 [2, 14] [nM]	IC50 [3, 15] [nM]	IC50 [4, 16] [nM]	IC50 [5, 17] [nM]	IC50 [6, 18] [nM]	Tumor disappear [7, 19]	T.S. (mm3) D 16 [7, 19] [mm3]	T.S. (mm3) D 0 [7] [mm3]	Tumor inhibition [8, 19]	T.S. (mm3) D 16 [8, 19] [mm3]	T.S. (mm3) D 0 [8] [mm3]	in vitro activity / cytotoxicity (in words) [3]	further results
9-t-butyloxyethyloxime-10-hydroxy-camptothecin [CPT2]	5.1 ± 2	14.1 ± 1.2	9.1	7.1 ± 1.6	2.9 ± 1.1	16.1 ± 2.5	–	–	–	–	–	–	–	–
CCC1(O)C(=O)OCc2c1cc1n(c2=O)Cc2cc3c(CC=NOC(C)(C)C)c(OC(=O)N4CCC(N5CCCCC5)CC4)ccc3nc2-1 (stereo not shown) [CPT1, 9-t-butyloxyethyloxime-10-[(4′-piperidinylpiperidinyl)carbonyloxy]-camptothecin]	–	–	–	–	–	–	6/6	0	356 ± 51	80.4	358 ± 34	236 ± 34	do not have significant activities in vitro	Maximum change in weight (%) ([7]; mouse, in vivo): −13%; Maximum change in weight (%) ([8]; mouse, in vivo): −12%; Therapeutic effect against transplanted tumors (in words) [9]: good therapeutic effect; Survival time compared with irinotecan and gimatecan ([10]; P<0.05): increased significantly; Average survival time (days) [10, 20]: 26.4 ± 1.2# days; Solubility compared with CPT2-10 [11]: better; Stability compared with CPT2-10 [11]: better; Experimentally determined dosage at the same level of toxicity (maximum tolerated dose) [12]: 55 mg/kg
CCC1(O)C(=O)OCc2c1cc1n(c2=O)Cc2cc3c(CC=NOC(C)(C)C)c(F)ccc3nc2-1 (stereo not shown) [CPT3, 9-t-butyloxyethyloxime-10-fluoro-camptothecin]	3.1 ± 1.5	11.2 ± 1	7.1	9.1 ± 3.2	2.1 ± 1	10.1 ± 2.1	–	–	–	–	–	–	significant cytotoxicity	–
CCC1(O)C(=O)OCc2c1cc1n(c2=O)Cc2cc3c(CC=NOC(C)(C)C)c(OC(=O)C(N)Cc4ccccc4)ccc3nc2-1 (stereo not shown) [CPT4, 9-t-butyloxyethyloxime-10-phenylalanine-carbonyloxy-camptothecin]	–	–	–	–	–	–	–	–	–	–	–	–	do not have significant activities in vitro	–
CCC1(O)C(=O)OCc2c1cc1n(c2=O)Cc2cc3c(CC=NOC(C)(C)C)cccc3nc2-1 (stereo not shown) [CPT7, 9-t-butyloxyethyloxime-camptothecin]	2.1 ± 1.2	5.5 ± 0.8	3.3	3.1 ± 1	1.5 ± 0.3	4.1 ± 0.4	–	–	–	–	–	–	significant cytotoxicity	–
CCC1(O)C(=O)OCc2c1cc1n(c2=O)Cc2cc3c(CC=NOC(C)(C)C)c(OC(C)=O)ccc3nc2-1 (stereo not shown) [CPT8]	7.1 ± 2.1	19.3 ± 2.2	12.9	11.1 ± 1.8	4.1 ± 1.7	23.1 ± 3.1	–	–	–	–	–	–	significant cytotoxicity	–
CCC1(OC(=O)C(N)Cc2ccccc2)C(=O)OCc2c1cc1n(c2=O)Cc2cc3c(CC=NOC(C)(C)C)c(OC(=O)N4CCC(N5CCCCC5)CC4)ccc3nc2-1 (stereo not shown) [CPT9, 9-t-butyloxyethyloxime-10-[(4′-piperidinylpiperidinyl)carbonyloxy]-20-phenylalanine carbonyloxy-camptothecin]	–	–	–	–	–	–	–	–	–	–	–	–	do not have significant activities in vitro	–
CC[C@@]1(O)C(=O)OCc2c1cc1n(c2=O)Cc2c-1nc1ccccc1c2/C=N/OC(C)(C)C [Gimatecan]	–	–	–	–	–	–	6/6	0	328 ± 65	68.4	578 ± 61	203 ± 33	–	Maximum change in weight (%) [7, 21]: −13%; IC50 ([1]; Homo sapiens, BXPC-3, 48 h): 1.5 ± 0.8 nM; Maximum change in weight (%) [8, 22]: −12%; IC50 ([2]; Homo sapiens, A549, 48 h): 4.7 ± 0.2 nM; IC50 ([3]; Homo sapiens, read-out: Concentration to inhibit 50% cell growth, mean (average concentration), mean over U87, BX-PC3, HT-29, OV-3, A549): 2.7 nM; Average survival time [10, 20]: 23.1 ± 1.6 days; IC50 ([4]; Homo sapiens, HT-29, 48 h): 3.6 ± 0.3 nM; IC50 ([5]; Homo sapiens, U-87 MG, 48 h): 0.6 ± 0.2 nM; MTD [12]: 1 mg/kg; IC50 ([6]; Homo sapiens, 48 h): 3.1 ± 2.2 nM
CCc1c2c(nc3ccc(OC(=O)N4CCC(N5CCCCC5)CC4)cc13)-c1cc3c(c(=O)n1C2)COC(=O)[C@]3(O)CC [Irinotecan]	–	–	–	–	–	–	6/6	0	361 ± 54	75.3	451 ± 56	214 ± 26	–	Maximum change in weight (%) [7, 21]: −12%; Maximum change in weight (%) [8, 22]: −13%; Average survival time [10, 20]: 22.8 ± 1.4 days; MTD [12]: 55 mg/kg
CCc1c2c(nc3ccc(O)cc13)-c1cc3c(c(=O)n1C2)COC(=O)[C@]3(O)CC [SN38]	6.8 ± 2.6	16.6 ± 1.9	10.5	8.7 ± 1.2	3.1 ± 1.1	17.1 ± 3.2	–	–	–	–	–	–	–	–
CC[C@@]1(O)C(=O)OCc2c1cc1n(c2=O)Cc2cc3c(CN(C)C)c(O)ccc3nc2-1 [Topotecan]	–	–	19.7	–	–	–	2/6	124 ± 12	323 ± 47	18.9	1478 ± 226	223 ± 43	–	Maximum change in weight (%) [7, 21]: −14%; IC50 ([1]; Homo sapiens, BXPC-3, 48 h): 19.1 ± 3.7 nM; Maximum change in weight (%) [8, 22]: −12%; IC50 ([2]; Homo sapiens, A549, 48 h): 28.5 ± 3.9 nM; IC50 ([4]; Homo sapiens, HT-29, 48 h): 17.3 ± 4.2 nM; IC50 ([5]; Homo sapiens, U-87 MG, 48 h): 12.5 ± 3.2 nM; MTD [12]: 12 mg/kg; IC50 ([6]; Homo sapiens, 48 h): 21.1 ± 2.6 nM
